Key:
[1] = Fluoride (TBAF in DMSO) induced chemiluminescence; assay type: physicochemical
[2] = Thermal stability / stability on silica of dioxetanes; assay type: physicochemical; conditions: TLC on silica versus NMR
Description: (c) Synthesis of 4-ethylthio-4-(3-pivaloyloxyphenyl)spiro-[1,2-dioxetane-3,2'-tricyclo[3.3.1.1^3,7 ]decane] (2).

[3] = Base-induced decay of chemiluminescence of hydroxyphenyl alkylthio dioxetane in 221 buffer pH 9.6 with surfactant enhancers; assay type: physicochemical; conditions: for t1/2 (decay of chemiluminescence): 0.2 M 221 buffer, pH 9.6, 0.88 mM Mg+2, ambient temperature
Protocol: The first order decay of chemiluminescence of dioxetane 3 in 0.2 M 221 buffer, pH 9.6 containing 0.88 mM Mg^+2 and the surfactant enhancers shown below was measured at ambient temperature. Surfactant A is CTAB, B is poly(vinylbenzyltributylphosphonium chloride), C is poly(vinylbenzyltributylphosphonium chloride)-co-poly(vinylbenzyltrioctylphosphonium chloride), D is 1-trioctylphoniummethyl-4-tributylphosphonium-methylbenzene dichloride.

[4] = Base-induced decay of chemiluminescence of hydroxyphenyl alkoxy or aryloxy dioxetanes in 221 buffer pH 9.6; assay type: physicochemical; conditions: 0.2 M 221 buffer, 0.88 mM Mg+2, 1.0 mg/mL 1-trioctylphosphoniummethyl-4-tributylphosphoniummethylbenzene dichloride
Protocol: The first order decay of chemiluminescence of dioxetanes 14-19 in 0.2 M 2-methyl-2-amino-1-propanol (221) buffer, pH 9.6 containing 0.88 mM Mg^+2 and 1.0 mg/mL of 1-trioctylphosphoniummethyl-4-tributylphosphoniummethylbenzene dichloride was measured at 37° C. in a Turner Designs (Sunnyvale, Calif.) model TD-20e luminometer. The half-lives of decay of chemiluminescence (t1/2) of hydroxy-dioxetanes correlate with the times required to reach the maximum light intensity (Imax) in the alkaline phosphatase-triggered decomposition of the corresponding phosphate-dioxetanes under the same conditions. […] It is expected that, for example, the phosphate derivatives of dioxetanes 14-19 as well as others which can be produced by the process described herein will be useful in alkaline phosphatase-linkedassays known in the art.

[5] = Chemiluminescence on heating

t1/2 37° C. (half-life of decay of chemiluminescence) [4] | SMILES | chemiluminescence colour ([1]; 0.1 M TBAF in DMSO) | further results
 | CCSC1(c2cccc(O)c2)OOC12C1CC3CC(C1)CC2C3 (centres unmarked) [Dioxetane 1, 4-Ethylthio-4-(3-hydroxyphenyl)spiro[1,2-dioxetane-3,2'-tricyclo[3.3.1.1^3,7]decane]] | yellow emission | chemiluminescence colour ([1]; excess TBAF in DMSO): yellow chemiluminescence
 | CCSC1(c2cccc(OC(=O)C(C)(C)C)c2)OOC12C1CC3CC(C1)CC2C3 (centres unmarked) [Dioxetane 2, 4-Ethylthio-4-(3-pivaloyloxyphenyl)spiro[1,2-dioxetane-3,2'-tricyclo-[3.3.1.1^3,7]decane]] |  | chemiluminescence colour ([1]; excess TBAF in DMSO): yellow chemiluminescence; stability on silica [2]: less stable on silica
 | Oc1cccc(C2(Sc3ccc(F)cc3)OOC23C2CC4CC(C2)CC3C4)c1 (centres unmarked) [Dioxetane 3, 4-(p-Fluorophenylthio)-4-(3-hydroxyphenyl)spiro[1,2-dioxetane-3,2'-tricyclo-[3.3.1.1^3,7]decane]] |  | t1/2 (decay of chemiluminescence) ([3]; Surfactant A (CTAB) 0.41 g/L): 11.2 min; t1/2 (decay of chemiluminescence) ([3]; Surfactant B (poly(vinylbenzyltributylphosphonium chloride)) 0.5 g/L): 4.2 min; t1/2 (decay of chemiluminescence) ([3]; Surfactant C (poly(vinylbenzyltributylphosphonium chloride)-co-poly(vinylbenzyltrioctylphosphonium chloride)) 0.5 g/L): 2.9 min; t1/2 (decay of chemiluminescence) ([3]; Surfactant D (1-trioctylphoniummethyl-4-tributylphosphonium-methylbenzene dichloride) 1.0 g/L): 2.0 min; kinetics for light emission compared with dioxetane 6 or alkoxy-substituted analogues ([3]; alkaline amine buffer containing metal salts): comparable to dioxetane 6
 | CC(C)(C)C(=O)Oc1cccc(C2(Sc3ccc(F)cc3)OOC23C2CC4CC(C2)CC3C4)c1 (centres unmarked) [Dioxetane 4, 4-(p-Fluorophenylthio)-4-(3-pivaloyloxyphenyl)spiro[1,2-dioxetane-3,2'tricyclo-[3.3.1.1^3,7]decane]] | yellow emission | chemiluminescence colour ([1]; excess TBAF in DMSO): red chemiluminescence
 | Oc1cccc(C2(SCC(F)(F)F)OOC23C2CC4CC(C2)CC3C4)c1 (centres unmarked) [Dioxetane 5, 4-(2,2,2-trifluoroethylthio)-4-(3-hydroxyphenyl)spiro[1,2-dioxetane-3,2'-tricyclo[3.3.1.1^3,7]decane]] |  | chemiluminescence colour ([1]; excess TBAF in DMSO): orange-yellow light
 | COC1(c2cccc(O)c2)OOC12C1CC3CC(C1)CC2C3 (centres unmarked) [Dioxetane 6, 4-(3-Hydroxyphenyl)-4-methoxyspiro[1,2-dioxetane-3,2'-tricyclo[3.3.1.1^3,7]decane]] | blue emission | 
 | CC(C)OC1(c2cccc(O)c2)OOC12C1CC3CC(C1)CC2C3 (centres unmarked) [Dioxetane 7, 4-Isopropoxy-4-(3-hydroxyphenyl)spiro[1,2-dioxetane-3,2'-tricyclo[3.3.1.1^3,7]decane]] | blue emission | 
 | C=CCOC1(c2cccc(O)c2)OOC12C1CC3CC(C1)CC2C3 (centres unmarked) [Dioxetane 8, 4-(3-Hydroxyphenyl)-4-(2-propenyloxy) spiro[1,2-dioxetane-3,2'-tricyclo[3.3.1.1^3,7]decane]] | blue emission | 
 | N#CCCOC1(c2cccc(O)c2)OOC12C1CC3CC(C1)CC2C3 (centres unmarked) [Dioxetane 9, 4-(2-Cyanoethoxy)-4-(3-hydroxyphenyl)spiro[1,2-dioxetane-3,2'-tricyclo-[3.3.1.1^3,7]decane]] | blue emission | 
 | OCCOC1(c2cccc(O)c2)OOC12C1CC3CC(C1)CC2C3 (centres unmarked) [Dioxetane 10, 4-(2-Hydroxyethoxy)-4-(3-hydroxyphenyl)spiro[1,2-dioxetane-3,2'-tricyclo-[3.3.1.1^3,7]decane]] | blue emission | 
 | Oc1cccc(C2(Oc3ccccc3)OOC23C2CC4CC(C2)CC3C4)c1 (centres unmarked) [Dioxetane 11, 4-(3-Hydroxyphenyl)-4-phenoxyspiro[1,2-dioxetane-3,2'-tricyclo[3.3.1.1^3,7]decane]] | blue emission | 
0.16 min | Oc1cccc(C2(OC(C(F)(F)F)C(F)(F)F)OOC23C2CC4CC(C2)CC3C4)c1 (centres unmarked) [Dioxetane 14, 4-(Hexafluoroisopropoxy)-4-(3-hydroxyphenyl)spiro[1,2-dioxetane-3,2'-tricyclo-[3.3.1.1^3,7]decane]] |  | 
3.7 min | Oc1cccc(C2(OCC(Cl)(Cl)Cl)OOC23C2CC4CC(C2)CC3C4)c1 (centres unmarked) [Dioxetane 15, 4-(3-Hydroxyphenyl)-4-(2 2,2-trichloroethoxy)spiro[1,2-dioxetane-3,2'-tricyclo-[3.3.1.1^3,7]decane]] |  | 
4.1 min | Oc1cccc(C2(OCC(Cl)Cl)OOC23C2CC4CC(C2)CC3C4)c1 (centres unmarked) [Dioxetane 16, 4-(2,2-Dichloroethoxy)-4-(3-hydroxyphenyl)spiro[1,2-dioxetane-3,2'-tricyclo-[3.3.1.1^3,7]decane]] |  | 
3.4 min | Oc1cccc(C2(OCC(F)(F)C(F)(F)F)OOC23C2CC4CC(C2)CC3C4)c1 (centres unmarked) [Dioxetane 17, 4-(3-Hydroxyphenyl)-4-(2,2,3,3,3-pentafluoropropoxy)spiro[1,2-dioxetane-3,2'-tricyclo[3.3.1.1^3,7]decane]] |  | 
1.76 min | Oc1cccc(C2(Oc3c(F)cccc3F)OOC23C2CC4CC(C2)CC3C4)c1 (centres unmarked) [Dioxetane 19, 4-(2',6'-Difluorophenoxy)-4-(3-hydroxyphenyl)spiro[1,2-dioxetane-3,2'-tricyclo[3.3.1.1^3,7]decane]] |  | 
 | COC1(c2cccc(OC(=O)C(C)(C)C)c2)OOC12C1CC3CC(C1)CC2C3 (centres unmarked) [Dioxetane 20, 4-Methoxy-4-(3-pivaloyloxyphenyl)spiro[1,2-dioxetane-3,2'-tricyclo-[3.3.1.1^3,7]decane]] | blue emission | 
 | COC1(c2cccc(O[Si](C)(C)C(C)(C)C)c2)OOC12C1CC3CC(C1)CC2C3 (centres unmarked) [Dioxetane 21] | blue chemiluminescence | chemiluminescence on heating [5]: blue chemiluminescence
 | COC1(c2cccc(O[Si](c3ccccc3)(c3ccccc3)C(C)(C)C)c2)OOC12C1CC3CC(C1)CC2C3 (centres unmarked) [Dioxetane 22] | blue chemiluminescence | chemiluminescence on heating [5]: blue chemiluminescence

SMILES | t1/2 37° C. (half-life of decay of chemiluminescence) [4] | chemiluminescence colour ([1]; 0.1 M TBAF in DMSO) | further results
Oc1cccc(C2(OCC(F)(F)C(F)(F)C(F)(F)F)OOC23C2CC4CC(C2)CC3C4)c1 (centres unmarked) [Dioxetane 18, 4-(2,2,3,3,4,4,4-Heptafluorobutoxy)-4-(3-hydroxyphenyl)spiro[1,2-dioxetane-3,2'-tricyclo[3.3.1.1^3,7]decane]] | 4.9 min |  | 

Source: patent US5936101A, “Process for the preparation of 1,2-dioxetane compounds and novel sulfur-substituted 1,2-dioxetane compounds as intermediates” (Lumigen, Inc., priority 1997, dated 1999)
